The test deals with T1, Tyrosinase (Mus musculus, UniProt P11344).
T1 sequence (P11344 whole entry): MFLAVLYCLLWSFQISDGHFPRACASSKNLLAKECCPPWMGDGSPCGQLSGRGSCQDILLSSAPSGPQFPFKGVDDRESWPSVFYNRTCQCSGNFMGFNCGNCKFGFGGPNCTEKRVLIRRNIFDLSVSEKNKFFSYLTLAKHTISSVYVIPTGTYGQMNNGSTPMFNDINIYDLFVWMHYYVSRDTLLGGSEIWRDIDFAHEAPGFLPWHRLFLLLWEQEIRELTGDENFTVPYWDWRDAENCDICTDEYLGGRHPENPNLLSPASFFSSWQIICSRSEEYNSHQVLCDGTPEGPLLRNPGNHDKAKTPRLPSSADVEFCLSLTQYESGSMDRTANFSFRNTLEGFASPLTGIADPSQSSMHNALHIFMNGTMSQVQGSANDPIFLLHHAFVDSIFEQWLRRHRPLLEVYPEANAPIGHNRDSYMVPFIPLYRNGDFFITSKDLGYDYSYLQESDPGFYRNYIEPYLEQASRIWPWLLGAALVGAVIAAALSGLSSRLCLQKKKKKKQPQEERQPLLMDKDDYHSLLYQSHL
Description: Tyrosinase Activity. As to conditions: pH 6.8. As to the method:
The reaction mixture contained 50 mM phosphate buffer, pH 6.8, 0.05% L-DOPA and the supernatant (tyrosinase). After incubation in the absence or presence of various stilbene derivatives (with varying concentrations ranging from 1 µg/mL to 100 µg/mL) at 37 °C for 20 min, dopachrome was monitored by measuring absorbanceat wavelength 492 nm by using a Molecular Devices microplate reader.
In the case of `COc1ccc(/C=C\c2ccccc2)cc1` [Trans-1-Methoxy-4-styryl-benzene (9)], the midpoint of inhibition, the IC50, lay at 433 µM.
As for `Oc1ccc(/C=C/c2cc(O)cc(O)c2)cc1` [5-[(E)-2-(4-hydroxyphenyl)ethenyl]benzene-1,3-diol], the figure is 10.8 µM.
Consider `C(=C\c1ccccc1)/c1ccccc1` [Trans-1,2-Diphenylethene (1)], for which the IC50 is > 500 µM.
The same measure for `COc1ccc(/C=C(/C=O)c2ccccc2)cc1` [(E)-3-(4-Methoxyphenyl)-2-phenylpropenal (20)]: 276 µM; for `CC(=O)Oc1ccc(C=Cc2ccccc2)cc1` [Trans-Acetic acid 4-styryl-phenyl ester (7)]: > 500 µM.
The same measure for `C(=C/c1c2ccccc2cc2ccccc12)/c1ccccc1` [Trans-9-Styryl-anthracene (15)]: 166 µM; for `COc1ccc(/C=C\c2ccccc2)cc1Br` [Trans-2-Bromo-1-methoxy-4-styryl-benzene (11)]: 56.2 µM; for `COc1ccc(/C=C\c2ccc(F)cc2)cc1` [Trans-1-fluoro-4-(4-methoxystyryl)benzene (10)]: 50 µM.
As for `Fc1cc(F)cc(/C=C\c2ccccc2)c1` [Trans-1,3-Difluoro-5-styrylbenzene (12)], the figure is 394 µM.
In the case of `Oc1ccc(/C=C\c2ccccc2)cc1` [Trans-4-Styryl-phenol (8)], the IC50 amounted to 17.4 µM.
The same measure for `O=[N+]([O-])c1ccc(/C=C\c2ccccc2)cc1` [Trans-1-Nitro-4-styrylbenzene (5)]: 361 µM.
`Brc1ccc(/C=C\c2ccccc2)cc1` [Trans-1-Bromo-4-styrylbenzene (4)] registered an IC50 of 277 µM. The IC50 values of the last two molecules are within 1.5-fold of each other.
As for `COc1ccc(/C=C\c2cc(OC)c(OC)c(OC)c2)cc1` [1,2,3-Trimethoxy-5-[(Z)-2-(4-methoxy-phenyl)-vinyl]-benzene], the figure is > 500 µM.
As for `Fc1ccc(/C=C\c2ccccc2)cc1` [Trans-1-Fluoro-4-styryl-benzene (2)], it took 79.4 µM to reach half-maximal inhibition (IC50).
The same measure for `N#C/C(=C/c1ccc(O)cc1)c1ccc(O)cc1` [(E)-2,3-bis(4-Hydroxyphenyl)acrylonitrile (21)]: 5.06 µM; for `Clc1ccc(/C=C\c2ccccc2)cc1` [Trans-1-Chloro-4-styrylbenzene (3)]: 320 µM; for `N#C/C(=C/c1cccnc1)c1ccc(O)cc1` [(E)-2-(4-Hydroxyphenyl)-3-(pyridin-3-yl)acrylonitrile (22)]: 270 µM.
As for `N#Cc1ccc(/C=C\c2ccccc2)cc1` [Trans-4-Styrylbenzonitrile (6)], the figure is 50 µM.
Turning to `Fc1c(F)c(F)c(/C=C\c2ccccc2)c(F)c1F` [Trans-1,2,3,4,5-Pentafluoro-6-styryl-benzene (14)], the 50% inhibitory concentration (IC50) was > 500 µM.
As to `COC(=O)/C(=C/c1ccc(O)c(OC)c1)c1ccc(OC)cc1` [(E)-Methyl-3-(4-hydroxy-3-methoxyphenyl)-2-(4-methoxyphenyl)acrylate (19)], the IC50 is > 500 µM.

The values are drawn from BindingDB's records for doi:10.1016/j.bioorg.2016.01.001 (Indian Institute of Integrative Medicine, 2016).
